# Experimental data from US8952059B2, “Acetyl L-carnitine for the preparation of a medicament for the prevention of painful peripheral neuropathy in patients with type 2 diabetes” (Sigma-Tau Industrie Farmaceutiche Riunite S.P.A., priority 2005, dated 2015).
# Where two headings read alike, the source gives them in different places.
# Legend:
# [1] = tested on: patients with type 2 diabetes (symptoms of painful peripheral neuropathy); assay: Clinical Trial BM 14329: multicentre, randomised, double-blind, placebo-controlled, 52 weeks; format: in vivo, human; settings: for Patients with symptom: Pain / Patients with symptom: Pain, hyperaesthesia, paraesthesia: 3.0 g/day; for Patients with symptom: Pain: n = 217 type 2 diabetes patients without the symptom at basal; for Patients with symptom: Pain, hyperaesthesia, paraesthesia: n = 217 type 2 diabetes patients without the symptoms at basal
# Description: (§1) A multicentre, randomised, double-blind, placebo-controlled clinical trial of 52 weeks' duration was conducted in patients with type 2 diabetes suffering from diabetic peripheral neuropathy.
# (§2) The patients were treated with acetyl L-carnitine at a dose of 0.5 grams or 1 gram, three times daily, or with placebo for 52 weeks.
# (§3) The patients recruited into the trial were patients of male and female sex and were aged from 18 to 70 years, in whom diabetes had been diagnosed more than one year earlier and presenting HbA1c greater than 5.9%.
# (§4) After 12, 26 and 52 weeks of treatment, the presence and intensity of pain, paraesthesia and hyperaesthesia, amongst other variables, were assessed as characteristic symptoms of painful peripheral neuropathy in patients who at the time of recruitment presented no such symptoms.
# [2] = tested on: patients with type 2 diabetes (symptoms of painful peripheral neuropathy); assay: Clinical Trial BM 14330: multicentre, randomised, double-blind, placebo-controlled, same characteristics as Example 1; format: in vivo, human; settings: for Patients with symptom: Pain / Patients with symptom: Pain, hyperaesthesia, paraesthesia: 3.0 g/day; for Patients with symptom: Pain: n = 181 type 2 diabetes patients without the symptom at basal; for Patients with symptom: Pain, hyperaesthesia, paraesthesia: n = 181 type 2 diabetes patients without the symptoms at basal
# Description: as §1, §2, §3, §4
# A multicentre randomised, double-blind, placebo-controlled clinical trial was conducted with the same characteristics as the clinical trial described in Example 1.
# [3] = tested on: diabetic patients suffering from neuropathy; settings: cited from earlier work
smiles,measurement,setting,value
"CC(=O)O[C@H](CC(=O)[O-])C[N+](C)(C)C [Acetyl L-carnitine, acetyl L-carnitine]",Patients with symptom: Pain,[1]; 12 weeks,17.1%
same,"Patients with symptom: Pain, hyperaesthesia, paraesthesia",[1]; 12 weeks,35.5%
same,Patients with symptom: Pain,[1]; 26 weeks,20.3%
same,"Patients with symptom: Pain, hyperaesthesia, paraesthesia",[1]; 26 weeks,38.6%
same,Patients with symptom: Pain,[1]; 52 weeks,29.5%
same,"Patients with symptom: Pain, hyperaesthesia, paraesthesia",[1]; 52 weeks,47.5%
same,"Prevention of symptoms typical of diabetic painful peripheral neuropathy (pain, hyperaesthesia, paraesthesia)","[1]; patients without such symptoms at entry, only in type 2 diabetes and at the higher dose",capable not only of curing but also of preventing the symptoms
same,Ability to prevent the onset of symptoms associated with diabetic painful peripheral neuropathy,"[1]; summary of Tables 1-3, 3 grams/day",statistically significant ability to prevent the onset of symptoms
same,Curative effect on symptoms of diabetic peripheral neuropathy already present at the start of the trial,"[1]; treatment for 26 or 52 weeks, effect better only in patients with type 2 diabetes",capable of curing the symptoms of diabetic peripheral neuropathy
same,Patients with symptom: Pain,[2]; 12 weeks,27.6%
same,"Patients with symptom: Pain, hyperaesthesia, paraesthesia",[2]; 12 weeks,42.5%
same,Patients with symptom: Pain,[2]; 52 weeks,35.9%
same,"Patients with symptom: Pain, hyperaesthesia, paraesthesia",[2]; 52 weeks,48.1%
same,Patients with symptom: Pain,"[2]; Table 5, head prints 12 weeks",28.7%
same,"Patients with symptom: Pain, hyperaesthesia, paraesthesia","[2]; Table 5, head prints 12 weeks",43.1%
same,Ability to prevent the onset of symptoms associated with diabetic painful peripheral neuropathy,"[2]; summary of Tables 4-6, 3 grams/day",statistically significant ability to prevent the onset of symptoms
same,Nerve conduction velocity,"[3]; diabetic patients suffering from neuropathy, Drugs 1997 September: 54 (3) 414-421",improves nerve conduction velocity
same,Nerve conduction velocity,"[3]; diabetic patients suffering from polyneuropathy, Journal of the Neurological Sciences, 1997, Suppl. to Vol 150",improves nerve conduction velocity
same,Relief of pain symptoms and regeneration of nerve fibres,"[3]; patients suffering from stabilised diabetic neuropathy, Diabetes Care, 2005, 28(1): 89-94",useful for relieving the pain symptoms and for regenerating nerve fibres
